Data on two molecules can be found in paper PMC9623576, “Semisynthesis and Evaluation of Anti-Inflammatory Activity of the Cassane-Type Diterpenoid Taepeenin F and of Some Synthetic Intermediates” (Journal of Natural Products, 2022).

In this test the test system is HepG2 human hepatocarcinoma cells. In words: MTT cancer cell proliferation assay, HepG2. To be noted: Homo sapiens, HepG2, 72 h, MTT; for IC50: read-out: IC50; for IC20: read-out: IC20. The class given is cell-based. The protocol: The five newly synthesized diterpenoids were evaluated for their cytotoxic effects against three selected tumor cell lines, B16-F10 murine melanoma cells, HT29 human colon adenocarcinoma cells, and HepG2 human hepatocarcinoma cells at increasing concentrations (0–100 μg/mL). After 72 h of treatment, cell viability was determined by an MTT assay, where the tetrazolium dye was transformed into formazan in the mitochondria of viable cells, its absorbance measured at 570 nm and expressed as a percentage with respect to untreated control cells (S3 Figure.). The concentrations required for 20, 50, and for 80% growth inhibition (IC20, IC50, and IC80) were also determined for each compound (Table 2).
A stock solution was frozen and stored at […]. Before the experiments, this solution was diluted in cell-culture medium to the adequate concentrations for each experiment. […] For nitrite assay, subcytotoxic concentrations (3/4IC50, 1/2IC50, and 1/4IC50), were used to ensure that the NO inhibitory potential was not due to a possible cytotoxic effect. The concentrations of 3/4IC50, 1/2IC50, and 1/4IC50 were used for the cell-cycle analysis. All experiments were measured and compared with control (untreated cells after 24, 48, or 72 h of treatment.)
Human colorectal adenocarcinoma cell line HT29 (ECACC no. 9172201; ATCC no. HTB-38), human hepatocarcinome cell line HepG2 (ECACC no. 85011430), mouse melanoma cells B16-F10 (ATCC no. CRL-6475), and murine monocyte/macrophage-like RAW 264.7 cell line (ATCC no, TIB-71) were cultured in DMEM (Dulbecco’s modified Eagle’s medium) supplemented with 2 mM glutamine, 10% heat-inactivated FCS (fetal calf serum), 10 000 units/mL of penicillin and 10 mg/mL of streptomycin, (for all cancer cell lines), 50 μg/mL of gentamicin (only for RAW 264.7 cell line), and incubated at 37 °C, in an atmosphere of 5% CO2 and 95% humidity. The culture media were changed every 48 h, and the confluent cultures were separated with a trypsin solution (0.25% EDTA). In all experiments, monolayer cells were grown to 80–90% confluence, in sterile cell culture flasks. All cell lines used were purchased from the cell bank of the University of Granada, Spain.
The cytotoxicity assay was performed by the MTT (3-(4,5-dimethylthiazol-2-yl)-2,5-diphenyltetrazolium bromide) method.[21] To quantify the cytotoxicity of compounds, the fresh and suspended cells were seeded in 96-well plates to a volume of 100 μL at 6.0 × 10^3 cells/mL for HT29 and RAW 264.7 cell lines, at 5.0 × 10^3 cells/mL for B16-F10 cells and 15.0 × 10^3 for Hep G2. Then, cells were incubated to adhere over 24 h at 37 °C with 5% CO2. All tested compounds were prepared in fresh growth medium. After 24 h, an additional 100 μL of medium with the corresponding concentrations of products (only medium in the control wells) was added to the corresponding wells, at various final concentrations (0–100 μg/mL). Finally, after 72 h of incubation at 37 °C with 5% CO2, the medium with the compounds were removed and 100 μL of MTT solution (0.5 mg/mL) in 50% of PBS 50% of medium was added to each well. After 1.5 h of incubation, formazan was resuspended in 100 μL of DMSO, and each concentration was tested in triplicate. Relative cell viability, with respect to untreated control cells, was measured by absorbance at 570 nm on an ELISA plate reader (Tecan Sunrise MR20-301, TECAN, Austria).
Cytotoxicity experimental data were fitted to a sigmoidal function (y = ymax/(x/a)^−b) by nonlinear regression. […] These analyses were performed using SigmaPlot 12.5 software. Similar analyses were performed to obtain the IC50 of NO production. All data shown here are representative of at least two independent experiments performed in triplicate. All quantitative data were summarized as the mean ± standard deviation (SD).

By IC50 is commonly meant the concentration that gives 50% inhibition. Broadly, the IC20 is the point of the concentration-response curve where the effect stands at 20%. Turning to `COC(=O)[C@]1(C)CCC[C@@]2(C)[C@H]1CC=C1C(C)=C(C(C)C)C(=O)C[C@@H]12` [Compound 16, (1R,4aR,10aR)-Methyl 7-isopropyl-1,4a,8-trimethyl-6-oxo-1,2,3,4,4a,4b,5,6,10,10a-decahydrophenanthrene-1-carboxylate], the IC50 is 18.5 ± 4.73 µM and the IC20 is 5.05 ± 2.74 µM.

The IC80 is the concentration at which the effect reaches the 80% level. Lower therefore signals an effect from little substance. Take `COC(=O)[C@]1(C)CCC[C@]2(C)c3cc(O)c(C=O)c(C)c3CC[C@@H]12` [Compound 21, (1R,4aS,10aR)-Methyl 7-formyl-6-hydroxy-1,4a,8-trimethyl-1,2,3,4,4a,9,10,10a-octahydrophenanthrene-1-carboxylate]: the IC50 was determined as 37.9 ± 5.4 µM, it took 45.3 ± 0.9 µM to reach the 80% level (IC80) and the IC20 was determined as 33.2 ± 8.64 µM.
